Laboratory results published in US8889671B2, “Compounds and methods for treating bacterial infections” (AstraZeneca AB, priority 2013, dated 2014).
Values after ≈ are worked out from the molar mass of the structure shown. Like-named read-outs stand apart in the source and are kept apart here.

Experiments:
Proteus vulgaris = assay: In vitro antibacterial activity of Example 5 (MIC); type: cell-based
Haemophilus influenzae [1] = assay: In vitro antibacterial activity of Example 5 (MIC); type: cell-based
B. cereus = assay: microbe, parasite or virus in culture; type: cell-based; conditions: Bacillus cereus
Streptococcus pneumoniae = assay: In vitro antibacterial activity of Example 5 (MIC); type: cell-based
Enterococcus faecalis = assay: In vitro antibacterial activity of Example 5 (MIC); type: cell-based
Pseudomonas aeruginosa [2] = assay: Susceptibility testing (MIC) Assay 2, broth microdilution; type: cell-based; conditions: PAO1, read-out: Pae MIC
Klebsiella pneumoniae = assay: as above; type: cell-based; conditions: clinical isolate, mucoid, read-out: Kpn MIC
Haemophilus influenzae [3] = assay: as above; type: cell-based; conditions: ATCC51907, Haemophilus influenzae, ATCC 51907, in vivo strain, read-out: Hin MIC
Escherichia coli = assay: as above; type: cell-based; conditions: K12, read-out: Eco MIC
Pseudomonas aeruginosa [4] = assay: In vitro antibacterial activity of Example 5 (MIC); type: cell-based
Finegoldia magna = assay: In vitro antibacterial activity of Example 5 against anaerobes (MIC, agar dilution); type: cell-based; conditions: ATCC53516; Finegoldia magna (ATCC 53516)
Propionibacterium acnes = assay: as above; type: cell-based; conditions: Cutibacterium acnes
S. pyogenes ARC838 = assay: Emergence of resistance with serial passage; type: cell-based, Streptococcus pyogenes; conditions: after twenty passages with Example 5, S. pyogenes ARC838
Streptococcus agalactiae = assay: In vitro antibacterial activity of Example 5 (MIC); type: cell-based
Bacteroides fragilis = assay: In vitro antibacterial activity of Example 5 against anaerobes (MIC, agar dilution); type: cell-based
Acinetobacter baumannii = assay: In vitro antibacterial activity of Example 5 (MIC); type: cell-based
[5] = test system: 7 S. aureus strains and 1 strain of Streptococcus pyogenes; assay: Minimum bactericidal concentration (MBC); type: cell-based, Staphylococcus aureus; Streptococcus pyogenes; conditions: 7 S. aureus strains and 1 S. pyogenes strain
[6] = test system: Staphylococcus aureus, Streptococcus pneumoniae, and S. pyogenes strains with characterized gyrase and topoisomerase mutations; type: cell-based; conditions: clinical isolates with mutations in gyrA, gyrB, ParC or ParE
Proteus mirabilis = assay: In vitro antibacterial activity of Example 5 (MIC); type: cell-based
Bacillus subtilis = assay: In vitro antibacterial activity of Example 5 (MIC); type: cell-based; conditions: 11 strains of Bacillus subtilis
Clostridium perfringens = assay: microbe, parasite or virus in culture; type: cell-based
Staphylococcus aureus = assay: S. aureus neutropenic mouse thigh infection model, PK/PD; conditions: for AUC value for 1-log reduction / AUC value for stasis: ip, with ABT
B. anthracis = assay: microbe, parasite or virus in culture; type: cell-based, Bacillus anthracis
[7] = S. aureus MRSA neutropenic dose response
[8] = S. aureus MRSA, neutropenic mouse thigh
[9] = S. aureus MSSA neutropenic dose response
[10] = S. aureus MSSA, neutropenic mouse thigh
[11] = S. aureus USA100, neutropenic mouse thigh
[12] = S. aureus USA100 neutropenic dose response
[13] = S. aureus USA300, neutropenic mouse thigh
[14] = S. aureus USA300 neutropenic dose response

Compound: C[C@@H]1CN2c3c(cc4c(N5C(=O)OC[C@@H]5C)noc4c3F)CC3(C(=O)NC(=O)NC3=O)[C@H]2[C@H](C)O1 [Example 5, (2R,4S,4aS)-11-Fluoro-2,4-dimethyl-8-[(4S)-4-methyl-2-oxo-1,3-oxazolidin-3-yl]-1,2,4,4a-tetrahydro-2′H,6H-spiro[1,4-oxazino[4,3-a][1,2]oxazolo[4,5-g]quinoline-5,5′-pyrimidine]-2′,4′,6′(1′H,3′H)-trione]
- MIC (Proteus vulgaris): 32 µg/mL (≈ 65.6 µM)
- MIC (Haemophilus influenzae [1]; ATCC49619, Haemophilus influenzae (ATCC 49619 CLSI QC Strain)): 0.25 µg/mL (≈ 0.513 µM)
- MIC90 (Haemophilus influenzae [1]; Haemophilus influenzae, n=29): 1 µg/mL (≈ 2.05 µM)
- MIC range (Haemophilus influenzae [1]; Haemophilus influenzae, n=29): 0.125 to 1 µg/mL
- MIC90 (B. cereus): 0.5 µg/mL (≈ 1.03 µM)
- MIC (Streptococcus pneumoniae; Streptococcus pneumonia (Penicillin, -erythromycin- and fluoroquinolone-resistant)): 0.25 µg/mL (≈ 0.513 µM)
- MIC (Streptococcus pneumoniae; Streptococcus pneumoniae, ATCC49619, Streptococcus pneumonia (ATCC 49619, CLSI QC Strain), read-out: MIC): 0.25 µg/mL (≈ 0.513 µM)
- MIC90 (Streptococcus pneumoniae; Streptococcus pneumoniae, 100 strains of S. pneumoniae): 0.25 µg/mL (≈ 0.513 µM)
- MIC50 (Streptococcus pneumoniae; Streptococcus pneumoniae, 100 strains of S. pneumoniae, read-out: MIC50 (MICH [sic])): 0.125 µg/mL (≈ 0.256 µM)
- MIC (Streptococcus pneumoniae; Streptococcus pneumoniae, Streptococcus pneumonia (In vivo Strain), read-out: MIC): 0.25 µg/mL (≈ 0.513 µM)
- MIC range (Enterococcus faecalis; E. faecalis, n=51): 0.125 to 2 µg/mL
- MIC (Enterococcus faecalis; Enterococcus faecalis): 2 µg/mL (≈ 4.1 µM)
- MIC (Enterococcus faecalis; Enterococcus faecalis, ATCC29212, Enterococcus faecalis (ATCC 29212 CLSI QC Strain)): 1 µg/mL (≈ 2.05 µM)
- MIC (Enterococcus faecalis; Enterococcus faecalis, Enterococcus faecalis (Vancomycin-R, fluoroquinolone-R)): 0.5 µg/mL (≈ 1.03 µM)
- MIC90 (Enterococcus faecalis; Enterococcus faecalis, E. faecalis, n=51): 2 µg/mL (≈ 4.1 µM)
- MIC (Pseudomonas aeruginosa [2]): > 200 µM
- MIC (Klebsiella pneumoniae): > 200 µM
- MIC (Haemophilus influenzae [3]): 0.33 µM (≈ 0.161 µg/mL)
- MIC (Escherichia coli): 4 µM (≈ 1.95 µg/mL)
- MIC (Pseudomonas aeruginosa [4]; PAO1, Pseudomonas aeruginosa (PAO1)): > 64 µg/mL
- MIC (Pseudomonas aeruginosa [4]; PAO1, Pseudomonas aeruginosa (PAO1, mexABCDXY-)): 2 µg/mL (≈ 4.1 µM)
- MIC (Pseudomonas aeruginosa [4]; Pseudomonas aeruginosa (clinical isolate)): > 64 µg/mL
- MIC (Finegoldia magna): < 0.03 µg/mL
- MIC (Propionibacterium acnes): 2 µg/mL (≈ 4.1 µM)
- decrease in susceptibility over the starting culture (S. pyogenes ARC838): 8 fold
- MIC (Streptococcus agalactiae): 0.5 µg/mL (≈ 1.03 µM)
- MIC90 (Streptococcus agalactiae; 100 strains of S. Agalactiae): 0.25 µg/mL (≈ 0.513 µM)
- MIC50 (Streptococcus agalactiae; 100 strains of S. Agalactiae, read-out: MIC50 (MICH [sic])): 0.125 µg/mL (≈ 0.256 µM)
- MIC (Bacteroides fragilis; Bacteroides fragilis (isolates not further specified)): 8 µg/mL (≈ 16.4 µM)
- MIC (Bacteroides fragilis; Bacteroides fragilis, ATCC25285, Bacteroides fragilis (ATCC 25285, CLSI QC Strain), read-out: MIC): 2 µg/mL (≈ 4.1 µM)
- MIC (Bacteroides fragilis; Bacteroides fragilis, Bacteroides fragilis (isolates not further specified), read-out: MIC): 4 µg/mL (≈ 8.21 µM)
- MIC (Acinetobacter baumannii): 4 µg/mL (≈ 8.21 µM)
- MIC (Acinetobacter baumannii; Acinetobacter baumannii (in vivo strain)): 4 µg/mL (≈ 8.21 µM)
- MIC (Acinetobacter baumannii; Acinetobacter baumannii (multi-drug resistant)): 16 µg/mL (≈ 32.8 µM)
- minimum bactericidal concentrations (MBCs) relative to the MIC [5]: ≤ 2 fold
- cross resistance [6]: No cross resistance
- MIC (Proteus mirabilis): 8 µg/mL (≈ 16.4 µM)
- MIC90 (Bacillus subtilis): 0.5 µg/mL (≈ 1.03 µM)
- MIC (Clostridium perfringens): 0.5 µg/mL (≈ 1.03 µM)
- AUC/MIC (free), 1-log reduction ± SEM (Staphylococcus aureus; [7]): 96 ± 35
- AUC/MIC (free), EC50 ± SEM (Staphylococcus aureus; [7]): 53 ± 25
- AUC/MIC (free), Stasis ± SEM (Staphylococcus aureus; [7]): 43 ± 5
- AUC value for 1-log reduction (Staphylococcus aureus; [8]): 55 μg·h/mL
- AUC value for stasis (Staphylococcus aureus; [8]): 24 µg·h/mL
- AUC/MIC (free), 1-log reduction ± SEM (Staphylococcus aureus; [9]): 245 ± 81
- AUC/MIC (free), EC50 ± SEM (Staphylococcus aureus; [9]): 71 ± 28
- AUC/MIC (free), Stasis ± SEM (Staphylococcus aureus; [9]): 98 ± 17
- AUC value for 1-log reduction (Staphylococcus aureus; [10]): 69 μg·h/mL
- AUC value for stasis (Staphylococcus aureus; [10]): 28 µg·h/mL
- AUC value for 1-log reduction (Staphylococcus aureus; [11]): 47 μg·h/mL
- AUC value for stasis (Staphylococcus aureus; [11]): 25 µg·h/mL
- AUC/MIC (free), 1-log reduction ± SEM (Staphylococcus aureus; [12]): 83 ± 23
- AUC/MIC (free), EC50 ± SEM (Staphylococcus aureus; [12]): 34 ± 14
- AUC/MIC (free), Stasis ± SEM (Staphylococcus aureus; [12]): 43 ± 5
- AUC value for 1-log reduction (Staphylococcus aureus; [13]): 150 μg·h/mL
- AUC value for stasis (Staphylococcus aureus; [13]): 91 µg·h/mL
- AUC/MIC (free), 1-log reduction ± SEM (Staphylococcus aureus; [14]): 132 ± 16
- AUC/MIC (free), EC50 ± SEM (Staphylococcus aureus; [14]): 73 ± 38
- AUC/MIC (free), Stasis ± SEM (Staphylococcus aureus; [14]): 80 ± 5
- MIC range (B. anthracis; B. anthracis, BSL3 testing): 0.125 to 1 µg/mL
- MIC90 (B. anthracis; Bacillus anthracis): 0.5 µg/mL (≈ 1.03 µM)
